Results reported in EP4458352A1, “EICOSAPENTAENOIC ACID ESTER DERIVATIVES FOR THE TREATMENT OF OBESITY” (Technische Universität Dresden, priority 2023, dated 2024).

Key:
[1] = test system: StAR, Cyp11a1, 3β-Hsd2, Cyp11b1, Cyp11b2; test: mRNA expression of StAR and steroidogenic enzymes upon FADS2 inhibition (qPCR); format: cell-based; conditions: upon FADS2 inhibition (SC-26196)
Protocol: Adrenal glands or adrenal corteces were isolated from WT C57BL/6J mice, cleaned from the surrounding fat tissue and incubated in collagenase buffer (1.6 mg/ml collagenase type I, 1.6 mg/ml BSA) for 45 min at 37 °C, while shaking at 900 rpm. Dissociated cells were passed through 22 G needle and a 100 µm cell strainer and centrifuged at 300 × g for 5 min at 4 °C. Cells of a pool from two adrenals of each mouse were distributed in four 0.2 % gelatin-precoated wells of a 96-well plate in DMEM/F12 supplemented with 1 % FBS, 50 U/mL penicillin and 50 µg/mL streptomycin. Two hours after seeding 10 µM SC-26196 (Tocris, Wiesbaden-Nordenstadt, Germany) or same amount of carrier (DMSO) were added without changing the medium. In some experiments medium was additionally supplemented with 150 µM ARA (Sigma Aldrich, Germany) or same amount of solvent (endotoxin-free water). […]
RNA was isolated from frozen tissues with the TRI Reagent (MRC, Cincinnati, USA) after mechanical tissue disruption or from cells with the RNeasy Mini Kit (Qiagen, Düsseldorf, Germany) according to manufacturer's instructions. […] Reverse transcription was performed with the iScript cDNA Synthesis kit (Biorad, Munich, Germany) and cDNA was analyzed by qPCR using the SsoFast Eva Green Supermix (Bio-Rad, Munich, Germany), a CFX384 real-time System C1000 Thermal Cycler (Bio-Rad) and the Bio-Rad CFX Manager 3.1 software.

HFD mice = test: Hair corticosteroid levels (LC-MS/MS) in HFD mice given dietary SC-26196; format: in vivo, WT C57BL/6J mice
Protocol: Six weeks-old male WT C57BL/6J mice were fed for 20 weeks a LFD (D12450B, Research Diets, NJ, USA) or a HFD (D12492, Research Diets, NJ, USA). In some experiments, WT C57BL/6J mice were fed for 8 weeks a HFD and for another 8 weeks a HFD supplemented with SC-26196 (Biorbyt Ltd). SC-26196 was mixed in the HFD at a concentration of 625 mg/kg of diet corresponding to approx. 100 mg/kg of animal weight. In other experiments WT mice were fed for 10 weeks a HFD and for another 10 weeks a HFD supplemented with icosapent ethyl (Vascepa). The content of Vascepa capsules was mixed by Research Diets with the diet at a concentration of 1.125 g/kg icosapent ethyl (corresponding to approx. 180 mg/kg of animal weight). Mice were weighed every week. Glucose and insulin tolerance tests were performed as previously described (20, 21). Three to five mg of hair (2-3 mm close to the skin on the back of the mice) were cut while gently holding the mice without anaesthesia.
Corticosterone and 11-dehydrocorticosterone in hair were extracted with methanol as described elsewhere. In brief, hair (3-5 mg) was washed by addition of 2.5 mL isopropanol. After 3 minutes the isopropanol was decanted and hair samples were dried in a fume hood. After drying, hair samples were extracted in 1.8 mL methanol that contained the internal standard mixtures for 18 h at room temperature. Finally, the methanolic extract was dried down, followed by reconstitution in respective mobile phase and analysis by LC-MS/MS as previously described with minor modifications. […] Corticosterone and 11-dehydrocorticosterone were detected by using the multi reaction monitoring scan mode with respective quantifier ions of 347.1->329.2 and 345.1->121.1, and qualifier ions of 347.1->90.9 and 345.1->242.3. […] Quantification of steroid hormones was achieved by comparisons of ratios of analyte peak areas to internal standard peak areas observed in samples to those in calibrators. Measured steroid concentrations were normalized to sample weights.

[2] = test system: primary adrenocortical cultures; test: Medulla explant-conditioned medium on primary adrenocortical cell cultures, steroids by LC-MS/MS; format: cell-based, WT C57BL/6J mice
Protocol: Medullas were isolated from WT C57BL/6J mice and transferred into DMEM/F12 medium. Six hours later the medulla explant supernatants were collected and applied onto adrenocortical cell cultures. These were previously treated for 6 h with SC-26196 (10 µM) or DMSO. SC-26196 or DMSO were re-added and adrenocortical cells were incubated for another 18 h until supernatants were collected for steroid measurement. In other experiments, medulla explants were treated for 6 h with SC-26196 (10 µM) or DMSO, washed thoroughly and left another 18 h in culture. Their supernatant was then applied on adrenocortical cell cultures and 8 h later supernatants of the latter were collected and analyzed by LC-MS/MS.
Steroid hormones in plasma and cell culture supernatants were analyzed by LC-MS/MS as previously described (71). Fifty to hundred µL plasma or cell culture supernatants were extracted by solid phase extraction using positive pressure, followed by a dry-down under gentle stream of nitrogen. […] Quantification of steroid concentrations was done by comparisons of ratios of analyte peak areas to respective peak areas of stable isotope labeled internal standards obtained in samples to those of calibrators.

[3] = 6 weeks after SC-26196 treatment start, HFD containing 0.625 g/kg SC-26196 vs control, n=8-10

## N#CC(CCCN1CCN(/N=C/c2cccnc2)CC1)(c1ccccc1)c1ccccc1 [SC-26196]
[1]
  mRNA expression of StAR or steroidogenic enzymes (Cyp11a1, 3β-Hsd2, Cyp11b1, Cyp11b2): increased
HFD mice; 3 weeks after SC-26196 treatment start, HFD containing 0.625 g/kg SC-26196 (approx. 100 mg/kg of animal weight) vs control
  levels of 11-dehydrocorticosterone in newly-grown hair: reduced
HFD mice; [3]
  11-dehydrocorticosterone levels in the hair: reduced
  corticosterone levels in the hair: reduced
[2]; adrenocortical cells treated 6 h with SC-26196 10 µM, then conditioned medium for another 18 h, n=4-6
  steroid synthesis in cells receiving medulla-conditioned medium: diminished steroid synthesis
[2]; medulla explants treated 6 h with SC-26196 10 µM, washed, 18 h culture, supernatant on adrenocortical cells 8 h, n=8
  increase of progesterone, 11-dehydrocorticosterone and corticosterone production by medulla-conditioned supernatants: attenuated
